Measurements published in US20110065760A1, “COMPOUNDS FOR THE INHIBITION OF ROTAMASES AND USE THEREOF” (Jerini AG, priority 2002, published 2011).

Key:
hPin1 = hPin1 (Homo sapiens, UniProt Q13526); experiment: protease-coupled PPIase assay, hPin1; assay type: biochemical; conditions: 6 nM hPin1, substrate Ac-Ala-Ala-Ser(PO3H2)-Pro-Arg-pNA, trypsin, pH 7.8, 6° C.; read-out: IC50 class, Target T-1 (hPin1)
[1] = WST-1 cytotoxicity assay, HL-60; assay type: cell-based; conditions: human, HL-60 cells (acute myeloid leukemia); WST-1, 48 h incubation; read-out: EC50 class, cytotoxic effect, CL-1 (HL-60)
Method: (§1) For this cytotoxic evaluation of the compounds the commercial available WST-1 assay (Roche) was used according to the manufacturer's instructions. The assay is based on the cleavage of the tetrazolium salt WST-1 by mitochondrial dehydrogenases found in viable cells. In general compounds were added to cells cultured in 96-well plates at 37° C. After 48 h of incubation 10 μl of WST-1 solution was added. The formazan dye was analyzed with an ELISA plate reader at (450 vs. 620) nm. CL-1: human acute myeloid leukemia, HL-60 CL-2: human cervix carcinoma, HeLa CL-3: human prostate carcinoma, PC-3 CL-4: human colon adenocarcinoma, Caco-2 CL-5: human breast adenocarcinoma, MCF-7

[2] = WST-1 cytotoxicity assay, HeLa; assay type: cell-based; conditions: human, HeLa cells (cervix carcinoma); WST-1, 48 h incubation; read-out: EC50 class, cytotoxic effect, CL-2 (HeLa)
Method: as §1

[3] = WST-1 cytotoxicity assay, PC-3; assay type: cell-based; conditions: human, PC-3 cells (prostate carcinoma); WST-1, 48 h incubation; read-out: EC50 class, cytotoxic effect, CL-3 (PC-3)
Method: as §1

[4] = WST-1 cytotoxicity assay, MCF-7; assay type: cell-based; conditions: human, MCF-7 cells (breast adenocarcinoma); WST-1, 48 h incubation; read-out: EC50 class, cytotoxic effect, CL-5 (MCF-7)
Method: as §1

[5] = system: tumor cell lines (HL-60, HeLa, PC-3, Caco-2, MCF-7); experiment: WST-1 cytotoxicity assay, tumor cell lines (panel statement); assay type: cell-based, human; conditions: WST-1, 48 h; table 4
Method: as §1

hFKBP12 = hFKBP12 (Homo sapiens, UniProt P62942); experiment: protease-coupled PPIase assay, hFKBP12; assay type: biochemical; conditions: 20 nM hFKBP12, substrate Suc-Ala-Phe-Pro-Phe-pNA, chymotrypsin, pH 7.8, 6° C.; read-out: IC50 class, Target T-2 (hFKBP12)
hCyp18 = hCyp18 (Homo sapiens, UniProt P62937); experiment: protease-coupled PPIase assay, hCyp18; assay type: biochemical; conditions: 10 nM hCyp18, substrate Suc-Ala-Phe-Pro-Phe-pNA, chymotrypsin, pH 7.8, 6° C.; read-out: IC50 class, Target T-3 (hCyp18)
LpCyp18 = LpCyp18 (Legionella pneumophila, UniProt Q5ZRZ4); experiment: biochemical; conditions: IC50 class, Target T-4 (LpCyp18)
EcParvulin = EcParvulin (Escherichia coli, UniProt P0A9L5); experiment: protease-coupled PPIase assay, EcParvulin; assay type: biochemical; conditions: 20 nM EcParvulin, substrate Suc-Ala-Phe-Pro-Phe-pNA, chymotrypsin, pH 7.8, 6° C.; read-out: IC50 class, Target T-5 (EcParv)
EcParvulin, sequence (P0A9L5 whole entry): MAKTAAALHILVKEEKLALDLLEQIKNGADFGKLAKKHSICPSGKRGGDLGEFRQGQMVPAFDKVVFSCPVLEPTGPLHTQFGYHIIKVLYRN

hPin1, sequence (Q13526 whole entry): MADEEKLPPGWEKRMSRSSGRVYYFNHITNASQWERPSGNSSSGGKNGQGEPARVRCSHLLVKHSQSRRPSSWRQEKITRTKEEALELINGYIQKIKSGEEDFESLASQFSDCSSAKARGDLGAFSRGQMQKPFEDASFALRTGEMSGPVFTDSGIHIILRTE
LpCyp18, sequence (Q5ZRZ4 1-164): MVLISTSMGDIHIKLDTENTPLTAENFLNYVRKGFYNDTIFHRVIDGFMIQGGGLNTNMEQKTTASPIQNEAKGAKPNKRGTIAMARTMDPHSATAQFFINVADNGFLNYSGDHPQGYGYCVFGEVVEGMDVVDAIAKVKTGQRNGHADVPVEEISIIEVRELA
hFKBP12, sequence (P62942 whole entry): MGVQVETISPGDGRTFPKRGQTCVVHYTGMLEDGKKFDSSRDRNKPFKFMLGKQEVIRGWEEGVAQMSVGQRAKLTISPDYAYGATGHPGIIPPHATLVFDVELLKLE
hCyp18, sequence (P62937 whole entry): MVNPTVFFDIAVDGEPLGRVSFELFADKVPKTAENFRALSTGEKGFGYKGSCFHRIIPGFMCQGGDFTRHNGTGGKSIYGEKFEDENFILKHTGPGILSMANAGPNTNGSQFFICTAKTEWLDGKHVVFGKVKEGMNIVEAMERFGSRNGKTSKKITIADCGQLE

In the case of Cc1c(Cl)cc(NC(=S)NCc2ccccc2)c(O)c1Cl [Compound 254], the IC50 (hPin1) is reported as < 1 µM, the EC50 at 48 h [1] is reported as 10 to 50 µM and the EC50 at 48 h [2] is reported as 10 to 50 µM. The EC50 at 48 h [3] was 10 to 50 µM and the EC50 at 48 h [4] was 10 to 50 µM.
In the case of CC(C)(C)CC(C)(C)NC(=O)Nc1cccc(Cl)c1O [Compound 54], the EC50 at 48 h [1] is reported as 10 to 50 µM and the EC50 at 48 h [4] is reported as < 10 µM.
With O=C(NCCc1ccccc1)Nc1cc(Cl)c(O)c(NCc2ccccc2Sc2ccc(Cl)cc2)c1 [Compound 632] the EC50 at 48 h [1] was < 10 µM and the EC50 at 48 h [3] was 10 to 50 µM.
In the case of Oc1c(NCc2ccccc2Sc2cccc(Cl)c2)ccc(F)c1F [Compound 403], the EC50 at 48 h [1] is reported as 10 to 50 µM, the EC50 at 48 h [2] is reported as < 10 µM and the EC50 at 48 h [3] is reported as < 10 µM.
With O=C(Nc1cc(Cl)nc(Cl)c1)Nc1cc(Cl)c(O)c(NCc2ccccc2Sc2ccc(Cl)cc2)c1 [Compound 652] the EC50 at 48 h [1] was < 10 µM, the EC50 at 48 h [3] was < 10 µM and the “cytotoxic effect on the tumor cell lines tested” value (from here on “cytotoxic effect”) [5] was “particular relevance”.
In the case of O=C(Nc1cc(Cl)c(O)c(NCc2ccccc2Sc2ccc(Cl)cc2)c1)N1CCOCC1 [Compound 654], the EC50 at 48 h [2] is reported as 10 to 50 µM and the EC50 at 48 h [4] is reported as < 10 µM.
Oc1c(Cl)cc(Cl)cc1NCc1ccccc1Sc1ccccc1Cl [Compound 332] gave an EC50 at 48 h [1] of 10 to 50 µM, an EC50 at 48 h [2] of 10 to 50 µM and an EC50 at 48 h [3] of 10 to 50 µM.
With COc1ccc(Oc2cccc(CNc3cc(Cl)cc(Cl)c3O)c2)cc1 [Compound 493] the EC50 at 48 h [1] was 10 to 50 µM, the EC50 at 48 h [2] was < 10 µM and the EC50 at 48 h [3] was < 10 µM.
With CC(C)(C)c1ccc(Oc2cccc(CNc3cc(Cl)cc(Cl)c3O)c2)cc1 [Compound 483] the IC50 (hPin1) was 1 to 10 µM, the IC50 (hFKBP12) was > 100 µM and the IC50 (hCyp18) was 10 to 50 µM. The IC50 (LpCyp18) was > 100 µM, the IC50 (EcParvulin) was 50 to 100 µM and the EC50 at 48 h [2] was 10 to 50 µM. For the same molecule, the EC50 at 48 h [3] was 10 to 50 µM.
Oc1c(Cl)cc(Cl)cc1NCc1ccccc1Sc1ccc(Cl)cc1 [Compound 329] gave an EC50 at 48 h [1] of 10 to 50 µM, an EC50 at 48 h [2] of 10 to 50 µM and an EC50 at 48 h [3] of 10 to 50 µM. It also gave an EC50 at 48 h [4] of 10 to 50 µM.
Work on CC(C)(C)NC(=S)Nc1cc(-c2nc3ccccc3s2)cc(Cl)c1O [Compound 640] yielded an IC50 (hPin1) of 1 to 10 µM, an EC50 at 48 h [1] of 10 to 50 µM and an EC50 at 48 h [4] of 10 to 50 µM.
In the case of Oc1c(Cl)cc(-c2nc3ccccc3s2)cc1NC(=S)NC1CCCC1 [Compound 653], the EC50 at 48 h [1] is reported as < 10 µM and the EC50 at 48 h [4] is reported as 10 to 50 µM.
For O=C(Nc1ccc(Cl)cc1)Nc1cc(Cl)c(O)c(NCc2ccccc2Sc2ccc(Cl)cc2)c1 [Compound 633], the EC50 at 48 h [1] was < 10 µM, the EC50 at 48 h [3] was < 10 µM and the “cytotoxic effect” value [5] was “particular relevance”.
With Oc1c(NCc2ccccc2Sc2ccccc2Cl)ccc(F)c1F [Compound 402] the EC50 at 48 h [1] was 10 to 50 µM, the EC50 at 48 h [2] was 10 to 50 µM and the EC50 at 48 h [3] was 10 to 50 µM.
In the case of Oc1c(F)cccc1NCc1ccccc1Sc1ccc(Cl)cc1 [Compound 357], the EC50 at 48 h [1] is reported as < 10 µM, the EC50 at 48 h [2] is reported as < 10 µM and the EC50 at 48 h [3] is reported as < 10 µM. The “cytotoxic effect” value [5] was “particular relevance”.
For Oc1c(Cl)cc(Cl)cc1NCc1cccc(OCc2ccccc2)c1 [Compound 484], the EC50 at 48 h [1] was 10 to 50 µM, the EC50 at 48 h [2] was < 10 µM and the EC50 at 48 h [3] was < 10 µM.
For O=C(NCc1ccccc1)Nc1cc(Cl)c(O)c(NCc2ccccc2Sc2ccc(Cl)cc2)c1 [Compound 631], the EC50 at 48 h [1] was < 10 µM and the EC50 at 48 h [3] was 10 to 50 µM.
For CC(C)(C)CC(C)(C)NC(=O)Nc1ccc(F)c(F)c1O [Compound 150], the EC50 at 48 h [1] was 10 to 50 µM and the EC50 at 48 h [4] was < 10 µM.
With Oc1ccccc1NCc1ccccc1Sc1ccc(Cl)cc1 [Compound 630] the EC50 at 48 h [1] was 10 to 50 µM, the EC50 at 48 h [2] was < 10 µM and the EC50 at 48 h [3] was < 10 µM.
In the case of CC(C)(C)CC(C)(C)NC(=O)Nc1cc(Cl)ccc1O [Compound 6], the EC50 at 48 h [1] is reported as 10 to 50 µM and the EC50 at 48 h [4] is reported as < 10 µM.
With CC(O)c1cc(Cl)cc(NCc2ccccc2Sc2ccc(Cl)cc2)c1O (stereo not drawn) [Compound 413] the EC50 at 48 h [1] was 10 to 50 µM, the EC50 at 48 h [2] was < 10 µM and the EC50 at 48 h [3] was 10 to 50 µM.
Oc1c(Cl)cc(Cl)cc1NC(=S)Nc1ccccc1C(F)(F)F [Compound 221] gave an EC50 at 48 h [1] of 10 to 50 µM and an EC50 at 48 h [4] of 10 to 50 µM.
